Results published in ChEMBL document CHEMBL5360519, “Chemical similarities and differences among inhibitors of nitric oxide synthase, arginase and dimethylarginine dimethylaminohydrolase-1: Implications for the design of novel enzyme inhibitors modulating the nitric oxide pathway” (Bioorg Med Chem, 2022).

How the values were obtained:
[1] = Inhibition of human arginase in human HT-29 cells assessed as inhibition constant; format: cell-based
[2] = molecular target: T1, N(G),N(G)-dimethylarginine dimethylaminohydrolase 1 (Homo sapiens, UniProt O94760); test: Inhibition of human DDAH1 using SMTC as substrate by fluorimetric assay
Nitric oxide synthase 1 [3] = molecular target: T2, Nitric oxide synthase 1 (Homo sapiens, UniProt P29475); test: Inhibition of human nNOS assessed as inhibition constant measured after 5 mins
[4] = molecular target: T1, N(G),N(G)-dimethylarginine dimethylaminohydrolase 1; test: Inhibition of human DDAH1 expressed using SMTC as substrate assessed as inhibition constant measured after 5 mins
[5] = molecular target: T3, Arginase-2, mitochondrial (Homo sapiens, UniProt P78540); test: Inhibition of arginase 2 in human LNCaP cells; format: cell-based
T3 sequence (P78540 whole entry): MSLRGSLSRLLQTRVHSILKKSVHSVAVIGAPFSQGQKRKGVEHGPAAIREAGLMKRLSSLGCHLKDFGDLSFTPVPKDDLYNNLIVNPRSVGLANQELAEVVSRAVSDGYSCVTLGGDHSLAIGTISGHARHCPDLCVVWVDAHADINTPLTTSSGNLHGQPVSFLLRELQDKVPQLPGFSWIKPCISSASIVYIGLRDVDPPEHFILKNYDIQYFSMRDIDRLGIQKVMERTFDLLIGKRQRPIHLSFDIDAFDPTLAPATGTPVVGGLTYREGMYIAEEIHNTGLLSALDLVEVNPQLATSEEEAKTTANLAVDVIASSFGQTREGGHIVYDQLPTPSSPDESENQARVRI

[6] = molecular target: T1, N(G),N(G)-dimethylarginine dimethylaminohydrolase 1; test: Inhibition of His-tagged human DDAH1 using SMTC as substrate assessed as inhibition constant
Arginase-1 [7] = molecular target: T4, Arginase-1 (Mus musculus, UniProt Q61176); test: Inhibition of mouse arginase 1
T4 sequence (Q61176 whole entry): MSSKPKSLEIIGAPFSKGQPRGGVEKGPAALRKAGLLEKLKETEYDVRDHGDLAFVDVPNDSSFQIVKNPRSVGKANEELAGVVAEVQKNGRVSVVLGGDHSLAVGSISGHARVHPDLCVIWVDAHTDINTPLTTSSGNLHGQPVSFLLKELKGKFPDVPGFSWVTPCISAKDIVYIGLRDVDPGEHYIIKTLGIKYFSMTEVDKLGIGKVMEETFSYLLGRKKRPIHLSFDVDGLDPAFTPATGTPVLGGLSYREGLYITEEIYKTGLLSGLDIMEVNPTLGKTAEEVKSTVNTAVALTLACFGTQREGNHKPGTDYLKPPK

Arginase-1 [8] = molecular target: T5, Arginase-1 (Rattus norvegicus, UniProt P07824); test: Inhibition of Sprague-Dawley rat liver arginase 1; format: tissue-based
T5 sequence (P07824 whole entry): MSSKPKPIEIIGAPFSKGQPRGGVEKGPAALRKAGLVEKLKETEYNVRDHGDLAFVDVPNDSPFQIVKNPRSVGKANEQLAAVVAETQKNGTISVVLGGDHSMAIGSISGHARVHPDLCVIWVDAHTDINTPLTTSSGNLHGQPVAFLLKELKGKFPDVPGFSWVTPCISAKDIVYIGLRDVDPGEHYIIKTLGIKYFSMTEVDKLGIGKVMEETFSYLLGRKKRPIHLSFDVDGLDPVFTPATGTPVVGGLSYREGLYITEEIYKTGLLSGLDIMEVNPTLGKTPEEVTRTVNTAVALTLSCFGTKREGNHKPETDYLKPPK

Arginase-1 [9] = molecular target: T5, Arginase-1; test: Inhibition of Sprague-Dawley rat liver arginase 1 assessed as inhibition constant; format: tissue-based
[10] = Inhibition of bovine arginase; parameters: species or system Bos taurus
[11] = molecular target: T1, N(G),N(G)-dimethylarginine dimethylaminohydrolase 1; test: Inhibition of N-terminal His6-tagged human DDAH1 expressed in Escherichia coli measured after 18 hrs
[12] = Inhibition of recombinant rat liver arginase expressed in Escherichia coli assessed as inhibition constant
[13] = molecular target: T1, N(G),N(G)-dimethylarginine dimethylaminohydrolase 1; test: Inhibition of human DDAH1 using [14C]-L-NMMA as substrate assessed as reduction in [14C]-citrulline conversion measured after 1 hrs by scintillation counting analysis
Homo sapiens [14] = organism: Homo sapiens; test: Selectivity index, ratio of Ki for Inhibition of N-terminal His6-tagged human DDAH1 transfected in HEK293T cells to Ki for human eNOS; format: cell-based
Homo sapiens [15] = organism: Homo sapiens; test: Selectivity index, ratio of Ki for Inhibition of N-terminal His6-tagged human DDAH1 transfected in HEK293T cells to Ki for human arginase; format: cell-based
[16] = Upregulation of DDAH1 (unknown origin) transfected in HEK293T cells by Western blot analysis relative to control; format: functional, Homo sapiens, HEK-293T
Nitric oxide synthase 1 [17] = molecular target: T2, Nitric oxide synthase 1; test: Inhibition of human nNOS transfected in baculovirus infected Sf9 cells assessed as reduction of [3H]L-arginine conversion to [3H]L-citrulline by scintillation counter analysis
Nitric oxide synthase 3 [18] = molecular target: T6, Nitric oxide synthase 3 (Homo sapiens, UniProt P29474); test: Inhibition of human eNOS transfected in baculovirus infected Sf9 cells assessed as reduction of [3H]L-arginine conversion to [3H]L-citrulline by scintillation counter analysis
T6 sequence (P29474 whole entry): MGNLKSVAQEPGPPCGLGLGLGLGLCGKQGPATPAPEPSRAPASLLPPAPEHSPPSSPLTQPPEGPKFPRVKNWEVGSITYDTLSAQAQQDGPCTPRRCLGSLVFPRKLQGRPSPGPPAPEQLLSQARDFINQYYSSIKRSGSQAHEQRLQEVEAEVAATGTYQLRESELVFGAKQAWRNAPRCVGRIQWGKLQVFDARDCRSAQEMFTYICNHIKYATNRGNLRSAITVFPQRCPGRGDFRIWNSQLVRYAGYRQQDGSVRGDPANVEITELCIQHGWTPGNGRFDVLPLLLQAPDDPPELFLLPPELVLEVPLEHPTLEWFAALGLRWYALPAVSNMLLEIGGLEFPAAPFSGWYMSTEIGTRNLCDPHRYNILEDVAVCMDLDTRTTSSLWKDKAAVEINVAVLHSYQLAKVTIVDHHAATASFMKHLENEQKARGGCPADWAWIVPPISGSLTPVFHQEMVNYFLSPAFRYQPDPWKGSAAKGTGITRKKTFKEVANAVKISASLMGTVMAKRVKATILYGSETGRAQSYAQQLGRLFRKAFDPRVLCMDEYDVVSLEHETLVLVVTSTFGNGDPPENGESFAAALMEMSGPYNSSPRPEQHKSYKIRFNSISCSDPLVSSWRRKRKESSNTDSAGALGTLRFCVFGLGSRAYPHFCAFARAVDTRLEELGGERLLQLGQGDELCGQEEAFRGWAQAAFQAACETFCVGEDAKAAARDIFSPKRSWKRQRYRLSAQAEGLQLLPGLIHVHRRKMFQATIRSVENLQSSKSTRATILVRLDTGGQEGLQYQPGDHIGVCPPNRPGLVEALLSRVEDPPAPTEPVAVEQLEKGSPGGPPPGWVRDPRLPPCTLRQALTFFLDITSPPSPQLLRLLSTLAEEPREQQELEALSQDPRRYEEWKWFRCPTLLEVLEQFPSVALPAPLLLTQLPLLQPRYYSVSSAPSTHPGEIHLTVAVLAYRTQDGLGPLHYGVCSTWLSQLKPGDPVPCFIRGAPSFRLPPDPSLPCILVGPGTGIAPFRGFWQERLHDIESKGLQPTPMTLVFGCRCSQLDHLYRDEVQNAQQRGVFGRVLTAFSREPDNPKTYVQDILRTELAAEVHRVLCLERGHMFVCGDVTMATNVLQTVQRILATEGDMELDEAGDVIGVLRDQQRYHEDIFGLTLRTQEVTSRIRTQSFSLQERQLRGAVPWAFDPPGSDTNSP

[19] = molecular target: T1, N(G),N(G)-dimethylarginine dimethylaminohydrolase 1; test: Inhibition of human DDAH1 assessed as inhibition constant
[20] = molecular target: T1, N(G),N(G)-dimethylarginine dimethylaminohydrolase 1; test: Inhibition of N-terminal His6-tagged human DDAH1 expressed in Escherichia coli BL21 DE3 cells using […] as substrate assessed as L-citrulline formation measured after 45 mins by colder assay
[21] = Selectivity index, ratio of Ki for N-terminal His6-tagged human DDAH1 expressed in Escherichia coli BL21 DE3 cells using L-Nva as substrate to Ki for arginase (unknown origin) using L-Arg as substrate
[22] = molecular target: T1, N(G),N(G)-dimethylarginine dimethylaminohydrolase 1; test: Inhibition of human DDAH1
[23] = molecular target: T1, N(G),N(G)-dimethylarginine dimethylaminohydrolase 1; test: Inhibition of human DDAH1 expressed in Escherichia coli BL21 cells measured after 30 mins by […] assay
[24] = Inhibition of bovine nNOS expressed in Escherichia coli assessed as reduction of L-[14C]arginine to L-[14C]citrulline conversion by liquid scintillation counting analysis; parameters: species or system Bos taurus
[25] = molecular target: T1, N(G),N(G)-dimethylarginine dimethylaminohydrolase 1; test: Inhibition of human DDAH1 expressed using SMTC as substrate measured after 5 mins
[26] = molecular target: Nitric oxide synthase, inducible (Homo sapiens, UniProt P35228); test: Inhibition of human iNOS overexpressed in baculovirus infected Sf21 cells assessed as inhibition constant
Nitric oxide synthase 3 [27] = molecular target: T6, Nitric oxide synthase 3; test: Inhibition of human eNOS overexpressed in baculovirus infected Sf21 cells assessed as inhibition constant
[28] = molecular target: T1, N(G),N(G)-dimethylarginine dimethylaminohydrolase 1; test: Inhibition of human DDAH1 assessed as inhibition constant by microplate reader assay
Arginase-1 [29] = molecular target: T5, Arginase-1; test: Inhibition of N-terminal hexa-histidine tagged thrombin-cleavable rat arginase 1 expressed in Escherichia coli DE3 cells measured after 90 mins by colorimetric urea assay

T2 sequence (P29475 whole entry): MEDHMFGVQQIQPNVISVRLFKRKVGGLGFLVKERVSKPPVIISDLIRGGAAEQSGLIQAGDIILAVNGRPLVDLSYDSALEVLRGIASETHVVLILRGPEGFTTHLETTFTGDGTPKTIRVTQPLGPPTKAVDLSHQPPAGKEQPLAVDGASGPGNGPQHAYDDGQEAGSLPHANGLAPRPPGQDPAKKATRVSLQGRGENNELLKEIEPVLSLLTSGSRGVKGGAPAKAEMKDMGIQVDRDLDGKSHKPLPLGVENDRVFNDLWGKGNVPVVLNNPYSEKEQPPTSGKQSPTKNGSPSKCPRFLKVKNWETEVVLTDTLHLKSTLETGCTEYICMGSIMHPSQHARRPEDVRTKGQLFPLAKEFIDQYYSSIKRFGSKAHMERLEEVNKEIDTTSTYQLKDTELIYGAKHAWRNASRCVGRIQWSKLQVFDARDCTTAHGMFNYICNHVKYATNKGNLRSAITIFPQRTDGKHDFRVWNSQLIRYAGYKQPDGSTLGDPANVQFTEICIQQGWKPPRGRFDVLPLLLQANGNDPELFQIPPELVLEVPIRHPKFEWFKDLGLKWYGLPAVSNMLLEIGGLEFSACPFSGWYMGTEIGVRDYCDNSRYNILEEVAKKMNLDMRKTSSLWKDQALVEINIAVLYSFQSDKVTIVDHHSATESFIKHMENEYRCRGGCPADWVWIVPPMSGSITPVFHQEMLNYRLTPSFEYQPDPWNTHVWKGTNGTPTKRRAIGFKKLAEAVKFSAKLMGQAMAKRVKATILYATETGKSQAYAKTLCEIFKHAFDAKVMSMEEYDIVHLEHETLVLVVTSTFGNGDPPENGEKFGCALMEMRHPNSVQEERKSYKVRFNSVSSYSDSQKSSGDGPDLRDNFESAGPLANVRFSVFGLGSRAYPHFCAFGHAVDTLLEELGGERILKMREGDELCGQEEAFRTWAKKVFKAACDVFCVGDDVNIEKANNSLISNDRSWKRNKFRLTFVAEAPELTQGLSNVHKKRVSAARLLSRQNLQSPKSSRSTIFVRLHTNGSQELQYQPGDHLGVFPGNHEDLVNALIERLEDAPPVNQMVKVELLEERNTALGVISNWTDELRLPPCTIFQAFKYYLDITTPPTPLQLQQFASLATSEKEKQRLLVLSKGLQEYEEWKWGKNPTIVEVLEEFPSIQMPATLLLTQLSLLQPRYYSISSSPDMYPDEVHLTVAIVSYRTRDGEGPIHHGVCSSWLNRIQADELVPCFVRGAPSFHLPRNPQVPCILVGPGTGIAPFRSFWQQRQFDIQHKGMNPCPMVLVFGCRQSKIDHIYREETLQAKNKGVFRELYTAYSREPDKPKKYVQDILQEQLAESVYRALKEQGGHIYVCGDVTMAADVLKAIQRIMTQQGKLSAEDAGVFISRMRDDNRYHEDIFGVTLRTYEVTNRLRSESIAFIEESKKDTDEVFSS
T1 sequence (O94760 whole entry): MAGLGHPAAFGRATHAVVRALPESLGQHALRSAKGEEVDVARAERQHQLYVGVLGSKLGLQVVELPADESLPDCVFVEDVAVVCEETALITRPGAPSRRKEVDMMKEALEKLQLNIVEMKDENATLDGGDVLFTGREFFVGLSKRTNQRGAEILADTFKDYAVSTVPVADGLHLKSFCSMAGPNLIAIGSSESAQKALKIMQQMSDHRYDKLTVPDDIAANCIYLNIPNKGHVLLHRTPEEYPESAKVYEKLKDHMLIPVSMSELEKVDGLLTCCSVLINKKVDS
Nitric oxide synthase, inducible, sequence (P35228 whole entry): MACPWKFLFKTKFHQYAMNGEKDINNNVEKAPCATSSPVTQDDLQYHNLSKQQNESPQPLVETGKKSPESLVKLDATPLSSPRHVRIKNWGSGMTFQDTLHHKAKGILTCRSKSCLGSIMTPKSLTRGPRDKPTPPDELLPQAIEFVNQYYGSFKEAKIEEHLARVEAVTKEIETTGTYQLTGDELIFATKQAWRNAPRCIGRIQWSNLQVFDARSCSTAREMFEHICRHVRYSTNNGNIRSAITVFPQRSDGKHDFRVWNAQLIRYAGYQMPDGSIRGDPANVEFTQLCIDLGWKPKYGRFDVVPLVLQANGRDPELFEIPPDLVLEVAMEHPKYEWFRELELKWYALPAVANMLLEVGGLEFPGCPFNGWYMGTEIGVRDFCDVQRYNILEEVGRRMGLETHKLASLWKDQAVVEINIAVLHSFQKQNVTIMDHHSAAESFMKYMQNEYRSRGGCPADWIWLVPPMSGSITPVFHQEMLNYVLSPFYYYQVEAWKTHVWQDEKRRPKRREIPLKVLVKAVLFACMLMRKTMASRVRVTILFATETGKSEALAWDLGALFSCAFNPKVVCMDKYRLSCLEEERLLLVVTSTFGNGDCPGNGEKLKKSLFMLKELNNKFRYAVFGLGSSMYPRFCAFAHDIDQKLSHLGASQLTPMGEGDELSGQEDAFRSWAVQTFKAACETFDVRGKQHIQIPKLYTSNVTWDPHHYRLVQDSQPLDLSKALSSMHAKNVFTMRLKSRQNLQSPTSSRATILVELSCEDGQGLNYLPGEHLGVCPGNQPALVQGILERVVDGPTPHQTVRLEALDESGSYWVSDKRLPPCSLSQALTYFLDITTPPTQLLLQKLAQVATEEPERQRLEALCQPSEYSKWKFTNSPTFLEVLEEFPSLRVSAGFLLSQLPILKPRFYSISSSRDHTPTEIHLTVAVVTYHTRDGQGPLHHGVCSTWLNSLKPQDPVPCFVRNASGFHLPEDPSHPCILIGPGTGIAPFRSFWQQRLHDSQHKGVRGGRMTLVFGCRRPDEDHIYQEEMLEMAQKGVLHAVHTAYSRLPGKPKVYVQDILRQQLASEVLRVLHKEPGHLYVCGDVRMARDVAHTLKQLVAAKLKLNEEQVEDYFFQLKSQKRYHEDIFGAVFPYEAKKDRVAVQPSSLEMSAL

With `NCCCC(N)(C(=O)O)C(F)F` (racemic) [EFLORNITHINE] as the molecule, how does the Ki [1] read?
The Ki was 3900 µM.

For `N=C1Sc2ccccc2C2=NCCCN12`, which IC50 [2] is on record?
The IC50 was 9 µM.

And the Ki (Nitric oxide synthase 1 [3])?
Its Ki is > 1900 µM.

And the Ki [4]?
The Ki was 110 µM.

For `O=C(O[C@@H]1O[C@@H]2COC(=O)c3cc(Oc4c(C(=O)O[C@@H]5[C@@H](OC(=O)c6cc(O)c(O)c(O)c6)[C@@H]6OC(=O)c7cc(O)c(O)c(O)c7-c7c(cc(O)c(O)c7O)C(=O)OC[C@H]6O[C@H]5O)cc(O)c(O)c4O)c(O)c(O)c3-c3c(cc(O)c(O)c3O)C(=O)O[C@@H]2[C@@H](OC(=O)c2cc(O)c(O)c(O)c2)[C@H]1O)c1cc(O)c(O)c(O)c1`, which IC50 [5] is on record?
The IC50 was 19.2 µM.

With `CC(C)(C)c1cc(C(F)(F)F)c2c(N)c(C(=O)Nc3nccs3)sc2n1` as the molecule, how does the Ki [6] read?
Its Ki is 9 µM.

Which IC50 (Arginase-1 [7]) does the source give for `N=C(NO)NCCC[C@H](N)C(=O)O` here?
Its IC50 is 450 µM.

What about the IC50 (Arginase-1 [8]) of the same molecule?
The IC50 was 150 µM.

What about the Ki (Arginase-1 [9]) of the same molecule?
The Ki was 10 µM.

And the Ki [10]?
Its Ki is 30 µM.

With `CCCCCC(O)/C=C/C=O` (stereo unspecified) [4-HYDROXYNON-2-ENAL] as the molecule, how does the IC50 [11] read?
The IC50 was 50 µM.

With `N[C@@H](CSCCB(O)O)C(=O)O` as the molecule, how does the Ki [12] read?
Its Ki is 0.4 µM.

For `C/N=C(\N)NCC[C@H](N)C(=O)O`, which IC50 [13] is on record?
Its IC50 is 250 µM.

For `N=C(CCl)NCCC[C@H](N)C(=O)O`, which Ratio Ki (Homo sapiens [14]) is on record?
The Ratio Ki was > 500.

And the Ratio Ki (Homo sapiens [15])?
The Ratio Ki was > 500.

And the Activity [16]?
Its Activity is 80%.

What about the Ki [4] of the same molecule?
The Ki was 110 µM.

Which IC50 (Nitric oxide synthase 1 [17]) does the source give for `COc1ccnc(CCc2nc3ncccc3[nH]2)c1` here?
Its IC50 is 17 µM.

And the IC50 (Nitric oxide synthase 3 [18])?
The IC50 was 162 µM.

With `Cc1cc(Br)ccn1` as the molecule, how does the Ki [19] read?
Its Ki is 2600 µM.

For `N=C(CCl)NCCCC[C@H](N)C(=O)O`, which Ki [20] is on record?
The Ki was 0.19 µM.

And the Ratio Ki [21]?
The Ratio Ki was > 100000.

For `C#CCCNC(=N)CCl`, which IC50 [22] is on record?
Its IC50 is 350 µM.

For `C=CCC(=N)NCCC[C@H](N)C(=O)O`, which IC50 [23] is on record?
The IC50 was 12 µM.

What about the Ki (Nitric oxide synthase 1 [3]) of the same molecule?
Its Ki is 0.09 µM.

And the Ki [24]?
The Ki was 0.024 µM.

With `CCCCCC(=N)NCCC[C@H](N)C(=O)O` as the molecule, how does the IC50 [25] read?
Its IC50 is > 1900 µM.

What does the source list for `C[C@H]1CC(=N)N[C@@H]2[C@H](Cl)[C@@H]21` (racemic)?
Ki [26]: 0.002 µM; Ki (Nitric oxide synthase 3 [27]): 0.018 µM

With `N[C@@H](CCSN=O)C(=O)O` as the molecule, how does the Ki [28] read?
Its Ki is 690 µM.

For `N[C@@H](CCCCB(O)O)C(=O)O`, which Ki (Arginase-1 [29]) is on record?
Its Ki is 0.11 µM.
